The target of this assay is T1, iNAP1.
T1 construct: gene rex; 6xHis N-terminal, E. coli BL21(DE3) pLys
Nature of the assay: sensor fluorescence titration, excitation […] nm, emission […] nm. The format is binding. To be noted: 22 °C, in vitro, pseudocytosol medium pH 7.5, 0.5 μM sensor.

Broadly, the Kd is the concentration at which binding is half-saturated. A high value points to lower affinity. As for `NC(=O)C1=CN([C@@H]2O[C@H](COP(=O)(O)OP(=O)(O)OC[C@H]3O[C@@H](n4cnc5c(N)ncnc54)[C@H](OP(=O)(O)O)[C@@H]3O)[C@@H](O)[C@H]2O)C=CC1` [NADPH], the Kd worked out at 300 nM.

The values are drawn from article PMC7320160, “In planta study of photosynthesis and photorespiration using NADPH and NADH/NAD^+ fluorescent protein sensors” (Nature Communications, 2020).
